Source: article PMC3509269 (The Analyst, 2012)

System: Calf thymus DNA
Assay type: biochemical
Settings: 0.2 mM, negative control, under the assay conditions (Fig. S8)

Structure (SMILES): C1CCOC1 [THF]
- SWV peak increases (DNA damage signal): did not show SWV peak increases
